Measurements: PMC6272903, “Synthesis and Structure-Activity Relationship Analysis of 5-HT7 Receptor Antagonists: Piperazin-1-yl Substituted Unfused Heterobiaryls” (Molecules, 2016)

target: T1, human 5-HT7b receptors (Homo sapiens, UniProt P34969); experiment: 5-HT7 competition radioligand binding assay ([3H]5-CT); conditions: HEK293 cells overexpressing human 5-HT7b receptors, at least two independent experiments in triplicate
T1 construct: expressed in transfected cells; host or cells: HEK293
Method: Novel scaffold endowed with 5-HT7R activity was identified by screening of the in-house compound library in a single compound concentration of 1 µM in a competition radioligand binding assay using [^3H]5-CT and HEK293 cells overexpressing the human 5-HT7b receptors.

T1 sequence (P34969 1-432): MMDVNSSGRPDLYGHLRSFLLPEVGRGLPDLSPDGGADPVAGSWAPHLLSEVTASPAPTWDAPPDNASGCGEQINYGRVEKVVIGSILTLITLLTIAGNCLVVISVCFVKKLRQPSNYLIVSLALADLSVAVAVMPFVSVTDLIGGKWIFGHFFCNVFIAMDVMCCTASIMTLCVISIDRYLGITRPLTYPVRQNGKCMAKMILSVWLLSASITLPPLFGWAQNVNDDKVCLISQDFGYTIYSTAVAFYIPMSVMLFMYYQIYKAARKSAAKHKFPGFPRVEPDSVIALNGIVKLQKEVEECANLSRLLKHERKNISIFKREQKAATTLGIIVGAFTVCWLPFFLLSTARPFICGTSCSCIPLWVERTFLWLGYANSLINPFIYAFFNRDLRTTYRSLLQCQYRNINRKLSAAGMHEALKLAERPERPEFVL

Ki ± S.D. 5-HT7 binding affinity	Compound
no affinity	c1cc(-c2ccoc2)nc(N2CCCCC2)n1 [Compound 43, 4-(3-Furyl)-2-(piperidin-1-yl)pyrimidine]

same assay, conditions: HEK293 cells overexpressing human 5-HT7b receptors, at least two independent experiments in triplicate, read-out: Ki ± S.D. 5-HT7 binding affinity

Compound	Ki
c1cc(-c2ccoc2)nc(N2CCNCC2)n1 [Compound 1, 4-(3-Furyl)-2-(piperazin-1-yl)pyrimidine]	9 ± 2 nM
CN1CCN(c2nccc(-c3ccoc3)n2)CC1 [Compound 2, 4-(3-Furyl)-2-(4-methylpiperazin-1-yl)pyrimidine]	7.2 ± 1.4 nM
CCN1CCN(c2nccc(-c3ccoc3)n2)CC1 [Compound 3, 2-(4-Ethylpiperazin-1-yl)-4-(3-furyl)pyrimidine]	10 ± 1 nM
O=C(c1ccccc1)N1CCN(c2nccc(-c3ccoc3)n2)CC1 [Compound 6, 2-(4-Benzoylpiperazin-1-yl)-4-(3-furyl)pyrimidine]	1400 ± 173 nM
c1ccc(CCCN2CCN(c3nccc(-c4ccoc4)n3)CC2)cc1 [Compound 7]	1.6 ± 0.2 nM
CCOC(=O)CCN1CCN(c2nccc(-c3ccoc3)n2)CC1 [Compound 9, Ethyl 3-{4-{[4-(3-furyl)pyrimidin-2-yl]piperazin-1-yl}}propanoate]	8.9 ± 2.1 nM
CCOC(=O)CCCCCN1CCN(c2nccc(-c3ccoc3)n2)CC1 [Compound 10]	1.4 ± 0.3 nM
CCCCCCc1cc(-c2ccoc2)nc(N2CCN(C)CC2)n1 [Compound 14, 4-(3-Furyl)-6-n-hexyl-2-(4-methylpiperazin-1-yl)pyrimidine]	3.3 ± 0.5 nM
CCC(C)c1cc(-c2ccoc2)nc(N2CCN(C)CC2)n1 (stereo not drawn) [Compound 15, 4-sec-Butyl-6-(3-furyl)-2-(4-methylpiperazin-1-yl)pyrimidine]	2.7 ± 0.5 nM
CN1CCN(c2nc(-c3ccoc3)cc(C(F)(F)F)n2)CC1 [Compound 16, 4-(3-Furyl)-2-(4-methylpiperazin-1-yl)-6-(trifluoromethyl)pyrimidine]	8.3 ± 1.7 nM
CCCc1cnc(N2CCN(C)CC2)nc1-c1ccoc1 [Compound 21, 4-(3-Furyl)-2-(4-methylpiperazino)-5-propylpyrimidine]	1330 ± 232 nM
CCCCc1nc(N2CCN(C)CC2)nc(-c2ccoc2)c1CCC [Compound 22, 4-n-Butyl-6-(3-furyl)-2-(4-methylpiperazino)-5-propylpyrimidine]	1250 ± 116 nM
Cc1occc1-c1ccnc(N2CCN(C)CC2)n1 [Compound 23, 4-(2-Methyl-3-furyl)-2-(4-methylpiperazin-1-yl)pyrimidine]	1920 ± 373 nM
Cc1cc(-c2ccnc(N3CCN(C)CC3)n2)co1 [Compound 24, 4-(5-Methyl-3-furyl)-2-(4-methylpiperazin-1-yl)pyrimidine]	462 ± 54 nM
CCCCCCc1cc(-c2coc(C)c2)nc(N2CCN(C)CC2)n1 [Compound 25, 4-n-Hexyl-6-(5-methyl-3-furyl)-2-(4-methylpiperazin-1-yl)pyrimidine]	12 ± 2 nM
CN1CCN(c2nccc(-c3ccco3)n2)CC1 [Compound 26, 4-(2-Furyl)-2-(4-methylpiperazin-1-yl)pyrimidine]	1020 ± 96 nM
Cc1ccc(-c2ccnc(N3CCN(C)CC3)n2)o1 [Compound 29, 4-(5-Methyl-2-furyl)-2-(4-methylpiperazin-1-yl)pyrimidine]	4230 ± 680 nM
CN1CCN(c2nccc(-c3ccsc3)n2)CC1 [Compound 30, 2-(Methylpiperazin-1-yl)-4-(3-thienyl)pyrimidine]	83 ± 9 nM
CN1CCN(c2nccc(-c3cccs3)n2)CC1 [Compound 32, 2-(Methylpiperazin-1-yl)-4-(2-thienyl)pyrimidine]	480 ± 65 nM
CN1CCN(c2nccc(-c3cccc(O)c3)n2)CC1 [Compound 34, 4-(3-Hydroxyphenyl)-2-(4-methylpiperazin-1-yl)pyrimidine]	> 10000 nM
CN1CCN(c2nccc(-c3ccc(O)cc3)n2)CC1 [Compound 35, 4-(4-Hydroxyphenyl)-2-(4-methylpiperazin-1-yl)pyrimidine]	> 10000 nM
CN1CCN(c2nccc(-c3cc4ccccc4n3C)n2)CC1 [Compound 38, 4-(1-Methylindol-2-yl)-2-(4-methylpiperazin-1-yl)pyrimidine]	1530 ± 125 nM
CN1CCN(c2nccc(-c3cccnc3)n2)CC1 [Compound 39, 2-(4-Methylpiperazin-1-yl)-4-(pyridin-3-yl)pyrimidine]	780 ± 94 nM
CN1CCN(c2nccc(-c3nccs3)n2)CC1 [Compound 40, 2-(4-Methylpiperazin-1-yl)-4-(thiazol-2-yl)pyrimidine]	> 10000 nM
CN1CCCN(c2nccc(-c3ccoc3)n2)CC1 [Compound 42, 4-(3-Furyl)-2-(4-methylhomopiperazin-1-yl)pyrimidine]	148 ± 17 nM
c1cc(-c2ccoc2)nc(N2CCCCC2)n1 [Compound 43, 4-(3-Furyl)-2-(piperidin-1-yl)pyrimidine]	> 10000 nM

The remaining lines, values ahead:

Ki	Compound
> 10000 nM	4-(3-Furyl)-2,4-bis(4-methylpiperazin-1-yl)pyrimidine [Compound 20]
5.3 ± 0.9 nM	CCCN1CCN(c2nccc(-c3ccoc3)n2)CC1 [Compound 4, 4-(3-Furyl)-2-(4-propylpiperazin-1-yl)pyrimidine]
25 ± 3 nM	c1ccc(CN2CCN(c3nccc(-c4ccoc4)n3)CC2)cc1 [Compound 5, 2-(4-Benzylpiperazin-1-yl)-4-(3-furyl)pyrimidine]
8.5 ± 1.1 nM	OCCN1CCN(c2nccc(-c3ccoc3)n2)CC1 [Compound 8, 2-[4-(2-Hydroxyethyl)piperazin-1-yl]-4-(3-furyl)pyrimidine]
3.9 ± 0.7 nM	Cc1cc(-c2ccoc2)nc(N2CCN(C)CC2)n1 [Compound 11, 4-(3-Furyl)-6-methyl-2-(4-methylpiperazin-1-yl)pyrimidine]
18 ± 3 nM	CN1CCN(c2nc(C#CC3=CCCCC3)cc(-c3ccoc3)n2)CC1 [Compound 17, 4-(Cyclohexenylethynyl)-6-(3-furyl)-2-(4-methylpiperazin-1-yl)pyrimidine]
22 ± 2 nM	CN1CCN(c2nc(-c3ccoc3)cc(-c3ccoc3)n2)CC1 [Compound 18, 4,6-Bis(3-furyl)-2-(4-methylpiperazin-1-yl)pyrimidine]
> 10000 nM	CN1CCN(c2nc(-c3ccoc3)cc(N(C)C)n2)CC1 [Compound 19, 4-Dimethylamino-6-(3-furyl)-2-(4-methylpiperazin-1-yl)pyrimidine]
380 ± 44 nM	CCc1cc(-c2ccco2)nc(N2CCN(C)CC2)n1 [Compound 27, 4-Ethyl-6-(2-furyl)-2-(4-methylpiperazin-1-yl)pyrimidine]
450 ± 63 nM	CCCCc1cc(-c2ccco2)nc(N2CCN(C)CC2)n1 [Compound 28, 4-n-Butyl-6-(2-furyl)-2-(4-methylpiperazin-1-yl)pyrimidine]
15 ± 3 nM	CCCCc1cc(-c2ccsc2)nc(N2CCN(C)CC2)n1 [Compound 31, 4-n-Butyl-2-(methylpiperazin-1-yl)-6-(3-thienyl)pyrimidine]
> 10000 nM	CN1CCN(c2nccc(-c3ccccc3O)n2)CC1 [Compound 33, 4-(2-Hydroxyphenyl)-2-(4-methylpiperazin-1-yl)pyrimidine]
7460 ± 1230 nM	CN1CCN(c2nccc(-c3cc4ccccc4o3)n2)CC1 [Compound 36, 4-(Benzofuran-2-yl)-2-(4-methylpiperazin-1-yl)pyrimidine]
5280 ± 820 nM	CN1CCN(c2nccc(-c3cc4ccccc4s3)n2)CC1 [Compound 37, 4-(Benzothiophen-2-yl)-2-(4-methylpiperazin-1-yl)pyrimidine]
1980 ± 275 nM	CN1CCN(c2nccc(-n3ccnc3)n2)CC1 [Compound 41, (1H-Imidazol-1-yl)-2-(4-methylpiperazin-1-yl)pyrimidine]

same assay, conditions: single compound concentration of 1 µM, HEK293 cells, read-out: inhibition in library screening

inhibition at 1 µM	Compound
> 60%	CN1CCN(c2nccc(-c3ccoc3)n2)CC1 [Compound 2, 4-(3-Furyl)-2-(4-methylpiperazin-1-yl)pyrimidine]
> 60%	Cc1cc(-c2ccoc2)nc(N2CCN(C)CC2)n1 [Compound 11, 4-(3-Furyl)-6-methyl-2-(4-methylpiperazin-1-yl)pyrimidine]
> 60%	CN1CCN(c2nc(-c3ccoc3)cc(-c3ccoc3)n2)CC1 [Compound 18, 4,6-Bis(3-furyl)-2-(4-methylpiperazin-1-yl)pyrimidine]
